Holding throughout (experiment): DTP human tumour cell line panel, 48 h
Test [1] has as its system BT-549 breast.
In test [2] the test system is CAKI-1 renal.
For test [3], the system named is CCRF-CEM leukemia.
Test [4] concerns DU-145 prostate.
The test system of test [5] is EKVX NSCLC.
The subject of test [6] is HCC-2998 colon.
Test [7] deals with HCT-116 colon.
Test [8] deals with HL-60(TB) leukemia.
Test [9] concerns K-562 leukemia.
Test [10] has as its system KM12 colon.
For test [11], the system named is LOX IMVI melanoma.
Test [12] has as its system M14 melanoma.
For test [13], the system named is MDA-MB-435.
The test system of test [14] is NCI-H460 lung.
For test [15], the system named is SF-295 CNS.
The test system of test [16] is SK-MEL-2 melanoma.
Test [17] concerns SK-MEL-5 melanoma.
Test [18] concerns SR leukemia.
The test system of test [19] is TK-10 renal.
Test [20] has as its system U251 CNS.

Each structure is given as a SMILES string.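 Exposure lasted 48 hours, with cells grown in 96-well plates and compounds tested at five concentrations. TGI: concentration producing complete growth inhibition.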 Bounds are passed on as bounds.

One may read the TGI as the concentration giving total growth inhibition. Read a low TGI as greater sensitivity of the cells.

Consider `CCOC(=O)CCC(NC(=O)c1ccc(Nc2cnc3ccc(C(F)(F)F)cc3n2)cc1)C(=O)OCC` (centres undefined), for which the TGI was 97.1 µM in test [1]; above 65.1 µM in test [2]; above 100 µM in test [3]; above 100 µM in test [4]; above 89.6 µM in test [5]; above 100 µM in [6]. For the same compound, the TGI in test [7] was above 100 µM; in test [8], above 100 µM; in test [9], above 100 µM; in [10], above 85.3 µM; in [11], above 100 µM; in [12] it was above 100 µM. The TGI in [13], in test [14], in test [15], in [16], in test [17] and in test [18] was above 100 µM in each case. The TGI in test [19] is above 40.8 µM; in [20], above 100 µM.

As for `COc1cc2ccc1OCc1cccc(n1)COc1ccc(cc1OC)C=Nc1ccc(cc1)-c1ccc(cc1)N=C2`, the TGI in test [1], in [2], in test [3], in test [4], in test [5] and in [6] was above 100 µM throughout. For the same compound, the TGI in test [7], in test [8], in test [9], in test [10], in [11] and in test [12] was above 100 µM each time. The TGI in [13], in [14], in test [15], in test [16], in test [17] and in [18] was above 100 µM throughout. In addition, the TGI in [19] and in test [20] was above 100 µM in each case.

With `CCSC1=N/C(=C/c2ccccc2O)C(=O)N1`, the TGI in [1], in test [2], in [3], in [4], in [5] and in [6] was above 100 µM in each case. In addition, the TGI in test [7], in [8], in test [9], in [10], in test [11] and in [12] was above 100 µM in each case. The TGI in [13], in [14], in test [15], in test [16], in test [17] and in test [18] was above 100 µM each time. This compound also had a TGI in [20] above 100 µM.

Turning to `COc1cc2c(c(OC)c1OC)C(=O)[C@H](Br)[C@H]2NC(=O)NCCCl`, the TGI in test [1], in [2], in [3], in [4], in test [5] and in [6] was above 100 µM in each case. The total growth inhibition concentration (TGI) in test [7], in test [8], in test [9], in [10], in test [11] and in test [12] was above 100 µM in each case. The TGI in test [13], in [14], in [15], in [16], in [17] and in test [18] was above 100 µM throughout. Further, the TGI in test [19] and in test [20] was above 100 µM throughout.

Consider `C#C[C@]1(O)CC[C@H]2[C@@H]3CCC4=C/C(=N\OCCN(CC)CC)CC[C@]4(C)[C@H]3CC[C@@]21C`, for which the TGI came to 31.5 µM in test [1]; 39.7 µM in test [2]; 44.9 µM in test [3]; 25.8 µM in [4]; 26.6 µM in test [5]; 25.9 µM in [6]. The TGI in [7] worked out at 17.6 µM; in [8], 3.42 µM; in [9], 11.9 µM; in test [10] it was 11.4 µM; in [11], 13.1 µM; in test [12], 10.9 µM. Further, the TGI in test [13] was 15.2 µM; in test [14] it was 21 µM; in [15], 5.21 µM; in [16], 11.3 µM; in test [17] it was 7.37 µM; in test [18], above 31.3 µM. Moreover, the values for the TGI in test [19] and in [20] were 23.5 µM and above 38.3 µM, respectively.

On to `CN(C)CC1(Cc2ccccc2)CCC(Cc2ccccc2)C1=O` (centres undefined), for which the TGI in test [1] worked out at 25.5 µM; in test [2], 23.3 µM; in [3], 12.5 µM; in test [4] it was 28.7 µM; in test [5], 31.8 µM; in test [6], 21.4 µM. The TGI in [7] worked out at 26.7 µM; in test [8] it was 12.5 µM; in test [9] it was 7.74 µM; in test [10], 20.9 µM; in test [11] it was 15.7 µM; in test [12], 23.9 µM. In addition, the TGI worked out at 23.8 µM in test [13]; 30.6 µM in test [14]; 31.2 µM in test [15]; 27.3 µM in test [16]; 27.4 µM in test [17]; 33.3 µM in test [18]. Moreover, the TGI in [19] was 26.7 µM; in test [20], 31.8 µM.

With `CC1CN=C(NS(=O)(=O)c2cc(C(=O)Nc3ccc(F)cc3)c(Cl)cc2S)NN1` (centres undefined), the TGI in [1], in test [2], in test [3], in test [4], in test [5] and in test [6] was above 100 µM each time. Besides, the TGI in test [7], in [8], in test [9], in test [10], in test [11] and in [12] was above 100 µM throughout. Besides, the TGI in test [13] was above 100 µM; in test [14] it was above 100 µM; in test [15] it was above 100 µM; in test [16], 76.7 µM; in test [17], above 100 µM; in test [18], above 100 µM. For the same compound, the TGI in test [19] and in test [20] was above 100 µM in each case.

With `Nc1nc(NCC2(CO)CCC2)cc(=O)[nH]1`, the TGI in test [1], in [2], in test [3], in test [4], in [5] and in test [6] was above 100 µM in each case. For the same compound, the TGI in [7], in test [8], in [9], in test [10], in test [11] and in test [12] was above 100 µM throughout. Moreover, the TGI in [13], in test [14], in test [15], in [16], in test [17] and in test [18] was above 100 µM throughout. The compound also showed a TGI in [20] above 100 µM.

Consider `Cn1c2ccccc2n2c3ccccc3c(=O)c(C#N)c12`, for which the TGI in test [1] was above 100 µM; in test [2] it was 35.2 µM; in test [3], above 100 µM; in test [4] it was 65.8 µM; in test [5] it was above 100 µM; in test [6] it was above 100 µM. Also, the TGI in test [7] was 33.9 µM; in test [8], above 100 µM; in test [9], above 100 µM; in [10], above 100 µM; in test [11], above 56.1 µM; in test [12] it was above 100 µM. Moreover, the TGI in test [13] was above 100 µM; in test [14], above 61.1 µM; in [15] it was 55.1 µM; in test [16] it was above 100 µM; in test [17], 28.4 µM; in test [18], 48.3 µM. Further, the TGI in [19] was above 100 µM; in test [20], 55.5 µM.

In the case of `Nc1cc(N2CCOCC2)nc(=O)n1-c1ccc(Cl)cc1`, the TGI in test [1], in test [2], in test [3], in test [4], in test [5] and in test [6] was above 100 µM each time. Moreover, the TGI in test [7], in test [8], in [9], in test [10], in [11] and in [12] was above 100 µM in each case. Moreover, the TGI in [13], in test [14], in test [15], in test [16], in test [17] and in test [18] was above 100 µM throughout. Further, in test [20], the TGI was above 100 µM.

In the case of `CCCCCCCCCCCCCCCC(=O)OC(COC(C)=O)CO[P+](=O)O` (centres undefined), the TGI in [1] is above 100 µM; in [2], above 100 µM; in [3] it was above 100 µM; in test [4] it was above 100 µM; in [5], above 100 µM; in test [6], 42.7 µM. Besides, the TGI in [8] is above 100 µM; in test [9], above 100 µM; in test [10], 48.4 µM; in test [11], 63.9 µM; in test [12] it was 28.4 µM; in test [13] it was above 100 µM. The TGI in [14] was above 100 µM; in test [15], 35.4 µM; in [16] it was 40.6 µM; in test [17], above 100 µM; in [18], 62 µM; in [19], above 100 µM. The TGI in test [20] was 45.3 µM.

With `COc1ccc([C@]23CCN(S(=O)(=O)c4ccc(C)cc4)[C@H]2[C@H](CO)C2(CC3)OCC(C)(C)CO2)cc1OC`, the TGI in test [1], in test [2], in [3], in [4], in [5] and in test [6] was above 100 µM throughout. For the same compound, the TGI in [7], in test [8], in test [9], in [10], in [11] and in test [12] was above 100 µM throughout. Moreover, the TGI in test [13], in [14], in test [15], in test [16], in test [17] and in test [18] was above 100 µM each time. Besides, the TGI in test [19] and in [20] was above 100 µM in each case.

With `O=C1/C(=C/c2ccccc2)CCc2ccccc21`, the TGI in test [1] was found to be 29.7 µM; in test [2], 32.7 µM; in test [3], 18.3 µM; in test [4], 37 µM; in test [5], 33.7 µM; in test [6], 38.6 µM. Further, the TGI turned out to be 33.5 µM in test [7]; 37.8 µM in test [8]; 20.5 µM in test [9]; 33.8 µM in [10]; 33 µM in test [11]; 37.4 µM in [12]. The TGI in [13] was found to be 28.2 µM; in test [14], 65.4 µM; in test [15] it was 34 µM; in test [17], 32.3 µM; in test [18], 38.9 µM; in test [19], 29.2 µM. In test [20], this compound yielded a total growth inhibition concentration (TGI) of 30.4 µM.

For `O=C(NCCNCCNC(=O)C(F)(F)F)C(F)(F)F`, the TGI in test [1], in test [2], in [3], in test [4], in [5] and in test [6] was above 100 µM each time. Besides, the TGI in test [7], in [8], in [9], in test [10], in [11] and in [12] was above 100 µM in each case. Moreover, the TGI in [13], in [15], in test [16], in test [17], in test [18] and in [19] was above 100 µM each time. In [20], this compound returned a TGI above 100 µM.

The values above are taken from PubChem BioAssay (NCI).
